Assay results published in patent US20230190717A1, “P38 GAMMA INHIBITORS AND METHOD OF USE THEREOF” (City of Hope, priority 2017, published 2023).

Columns and labels:
p38γ = p38γ mRNA level and protein expression (Western blot); format: cell-based; details: 4 hr
Source text: qRT-PCR (real-time quantitative reverse transcription PCR): Total RNA was generated using TRIZOL reagent (Life Technologies, Carlsbad, Calif.) followed by double DNase treatment and column purification using Qiagen RNeasy Clean-up (Qiagen, Germantown, Md.). The Invitrogen […] III First-Strand Synthesis System was used for cDNA synthesis and TaqMan 5700 Sequence Detection System (Applied Biosystems, Foster City, Calif.) were used for qRT-PCR. All PCR reactions were run in triplicate. The amplified transcripts were quantified using the comparative CT method as described. cDNA and primers for MAPK11, 12, 13, and 14 and GAPDH (Table 9) were added to SYBR GREEN PCR Master Mix (SYBR Green I Dye, […]® DNA polymerase, dNTPs with dUTP and optimal buffer components; Applied Biosystems) and subjected to PCR amplification (1 cycle at 95° C. for 3 min; 35 cycles at 95° C. for 15 s and 55° C. for 30 s; 1 cycle at 50° C. for 2 min).

PI3K p110γ = PI3K p110γ (Homo sapiens, UniProt P48736); details: summarized from Selleck and Apexbio; read-out: IC50 of PI3K Isoforms, p110γ; cited from earlier work
Hut78 cells = assay: NanoString RNA gene expression profiling, Hut78; format: cell-based, human; details: 50 nM, 10 h
Procedure: All samples were validated. Data were analyzed using nSolver 3.0 digital analyzer software and R program.

Chain of PI3K p110γ (P48736 whole entry, canonical isoform): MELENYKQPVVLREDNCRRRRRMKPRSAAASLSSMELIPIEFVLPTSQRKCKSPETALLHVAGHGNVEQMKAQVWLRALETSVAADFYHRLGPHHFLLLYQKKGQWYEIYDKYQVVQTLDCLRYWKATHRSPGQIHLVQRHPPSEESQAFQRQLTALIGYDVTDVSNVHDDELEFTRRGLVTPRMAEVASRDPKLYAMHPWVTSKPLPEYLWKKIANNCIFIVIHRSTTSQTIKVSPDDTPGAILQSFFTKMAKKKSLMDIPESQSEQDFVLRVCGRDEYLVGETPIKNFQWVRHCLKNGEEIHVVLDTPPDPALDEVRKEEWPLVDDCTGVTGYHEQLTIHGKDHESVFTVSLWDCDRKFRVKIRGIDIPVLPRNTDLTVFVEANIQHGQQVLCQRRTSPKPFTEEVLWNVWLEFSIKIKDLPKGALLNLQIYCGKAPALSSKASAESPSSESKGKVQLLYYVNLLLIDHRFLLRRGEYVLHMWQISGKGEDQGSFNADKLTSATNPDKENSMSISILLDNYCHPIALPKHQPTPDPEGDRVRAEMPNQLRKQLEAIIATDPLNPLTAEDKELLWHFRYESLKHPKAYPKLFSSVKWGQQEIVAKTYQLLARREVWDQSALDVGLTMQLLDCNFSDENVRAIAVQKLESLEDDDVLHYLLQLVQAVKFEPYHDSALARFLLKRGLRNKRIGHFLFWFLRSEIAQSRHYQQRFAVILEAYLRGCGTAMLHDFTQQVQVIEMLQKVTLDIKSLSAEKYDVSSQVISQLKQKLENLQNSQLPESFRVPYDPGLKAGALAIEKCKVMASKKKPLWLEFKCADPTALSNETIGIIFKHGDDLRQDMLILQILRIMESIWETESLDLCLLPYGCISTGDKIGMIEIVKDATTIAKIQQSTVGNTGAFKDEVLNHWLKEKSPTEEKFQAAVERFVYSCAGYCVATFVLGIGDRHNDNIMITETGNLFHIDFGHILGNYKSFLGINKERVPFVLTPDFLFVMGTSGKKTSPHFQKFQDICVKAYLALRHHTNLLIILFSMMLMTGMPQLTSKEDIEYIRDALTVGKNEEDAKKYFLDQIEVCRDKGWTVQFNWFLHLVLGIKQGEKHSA

SMILES: Cc1ccc([N+](=O)[O-])cc1S(=O)(=O)N(C)/N=C/c1cnc2ccc(Br)cn12 [Compound 1]
- mRNA level of p38 gamma (p38γ): reduces the mRNA level
- IC50 (PI3K p110γ): 76 nM
- Activation z-score (Hut78 cells; IL-6 Signaling): −3.109
- Activation z-score (Hut78 cells; NF-kB signaling): −3.623
- Activation z-score (Hut78 cells; PI3K signaling): −3.108
- Activation z-score (Hut78 cells; PI3KI/AKT signaling): −0.63
- Activation z-score (Hut78 cells; PTEN): 1.25
- Activation z-score (Hut78 cells; Role of NFAT in regulation of the immune response): −3.962
- Activation z-score (Hut78 cells; Th1 pathway): −3.533
- Activation z-score (Hut78 cells; Th2 pathway): −2.236
- Activation z-score (Hut78 cells; Wnt/B-catenin signaling): 1.152
